Experimental data as given in patent publication US8106055B2, “Substituted amide compounds” (Gruenenthal GmbH, priority 2007, dated 2012).

How the values were obtained:
human μ opiate receptor = biological target: T1, human μ opiate receptor (Homo sapiens, UniProt P35372); assay: Affinity for the human μ opiate receptor ([3H]-naloxone displacement, CHO-K1 receptor membrane preparation, SPA); type: binding; settings: test concentration of 1 μM; for inhibition at 1 µM: read-out: μ (binding on the μ opioid receptor, % inhibition)
T1 construct: purchased PerkinElmer Life Sciences, Zaventem, Belgium RB-HOM; host or cells: CHO-K1 cells (membrane preparation)
T1 sequence (P35372 whole entry): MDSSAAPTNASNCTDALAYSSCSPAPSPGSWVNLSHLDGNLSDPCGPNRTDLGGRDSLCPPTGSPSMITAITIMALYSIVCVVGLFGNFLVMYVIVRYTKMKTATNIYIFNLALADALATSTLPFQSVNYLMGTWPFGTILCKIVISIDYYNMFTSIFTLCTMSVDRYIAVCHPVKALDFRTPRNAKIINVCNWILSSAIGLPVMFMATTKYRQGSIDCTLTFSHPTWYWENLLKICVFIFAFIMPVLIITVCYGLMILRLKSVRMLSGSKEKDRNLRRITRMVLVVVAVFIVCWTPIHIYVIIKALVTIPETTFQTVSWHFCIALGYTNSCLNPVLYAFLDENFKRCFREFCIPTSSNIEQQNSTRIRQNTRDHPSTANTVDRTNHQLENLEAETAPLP
Summary of the method: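 Readout is percent displacement of [3H]-naloxone (1 nmol/l) from human μ receptor in CHO-K1 membranes, measured at 1 μmol/l compound. Incubation runs 90 minutes at room temperature with WGA-SPA beads in Tris-HCl/BSA buffer; non-specific binding is defined with 100 μmol/l naloxone.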

[1] = biological target: T2, serotonin (5-HT) reuptake (Rattus norvegicus, UniProt P31652); assay: Inhibition of serotonin (5HT) reuptake in synaptosomes from rat brain; type: biochemical; settings: test concentration of 10 μM; for inhibition at 10 µM: read-out: 5-HT (inhibition of reuptake of serotonin, % inhibition)
T2 construct: synaptosomes are freshly isolated from areas of the rat brain; from tissue; host or cells: rat brain synaptosomes (P2 fraction)
T2 sequence (P31652 whole entry): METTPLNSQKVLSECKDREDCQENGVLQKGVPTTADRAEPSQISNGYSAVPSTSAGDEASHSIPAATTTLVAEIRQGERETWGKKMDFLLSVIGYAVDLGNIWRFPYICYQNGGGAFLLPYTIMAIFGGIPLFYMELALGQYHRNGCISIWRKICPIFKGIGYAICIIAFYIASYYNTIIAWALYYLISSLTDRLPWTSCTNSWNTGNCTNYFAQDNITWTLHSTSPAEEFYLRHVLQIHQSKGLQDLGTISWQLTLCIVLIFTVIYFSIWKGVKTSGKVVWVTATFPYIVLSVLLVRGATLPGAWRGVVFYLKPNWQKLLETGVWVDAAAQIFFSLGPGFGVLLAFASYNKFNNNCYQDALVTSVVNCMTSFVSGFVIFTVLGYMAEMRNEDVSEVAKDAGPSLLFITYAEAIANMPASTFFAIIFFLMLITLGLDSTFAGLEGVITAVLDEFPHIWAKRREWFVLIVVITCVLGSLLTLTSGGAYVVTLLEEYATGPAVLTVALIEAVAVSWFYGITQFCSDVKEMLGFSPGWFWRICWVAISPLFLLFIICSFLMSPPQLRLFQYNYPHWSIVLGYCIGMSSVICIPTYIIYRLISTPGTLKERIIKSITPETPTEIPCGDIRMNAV
Method: Binding data of the compounds on the μ opioid receptor and data on the inhibition of reuptake of serotonin (5-HT) are given in Table 1. The data for the μ receptor were measured at a test concentration of 1 μM, and those for the serotonin reuptake at 10 μM. The values are stated in % inhibition.
Inhibition of Serotonin (5HT) Reuptake
In order to be able to carry out these in vitro studies, synaptosomes are freshly isolated from areas of the rat brain. In each case a so-called “P2” fraction prepared in accordance with the instructions of Gray and Whittaker (E. G. Gray and V. P. Whittaker (1962) J. Anat. 76, 79-88) is prepared. For the NA uptake, these vesicular particles are isolated from the hypothalamus of male rat brains.
A detailed description of the method can be found in the literature (M. Ch. Frink, H.-H. Hennies, W. Englberger, M. Haurand and B. Wilffert (1996) Arzneim.-Forsch./Drug Res. 46 (III), 11, 1029-1036).

[2] = biological target: T3, human bradykinin 1 receptor (B1R) (Homo sapiens, UniProt P46663); assay: Functional investigation on the human bradykinin 1 receptor (B1R), Ca2+ FLIPR assay in CHO K1 hB1R cells; type: cell-based; settings: test substance 10 μM, Ca2+ FLIPR, CHO K1 hB1R cells; for B1R Ant. h [10 μM] % Inhibition: B1R antagonism human; for inhibition at 10 µM: CHO-K1, B1R antagonism human, read-out: B1R Ant. h [10 μM] % Inhibition
T3 construct: expressed in transfected cells; host or cells: CHO K1 cells
T3 sequence (P46663 1-353): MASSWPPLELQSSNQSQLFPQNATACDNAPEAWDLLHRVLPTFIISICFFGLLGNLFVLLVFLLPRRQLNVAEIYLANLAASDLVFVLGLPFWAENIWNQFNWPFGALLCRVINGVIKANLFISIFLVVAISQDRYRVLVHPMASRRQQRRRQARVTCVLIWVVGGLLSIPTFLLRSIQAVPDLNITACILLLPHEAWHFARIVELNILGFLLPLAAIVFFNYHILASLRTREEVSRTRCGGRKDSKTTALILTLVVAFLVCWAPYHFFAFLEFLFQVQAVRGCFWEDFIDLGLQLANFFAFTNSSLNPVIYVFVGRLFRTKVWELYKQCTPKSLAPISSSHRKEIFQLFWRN
Summary of the method: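 Stably transfected CHO K1 cells loaded with Fluo-4; FLIPR Ca2+ fluorescence peak (ex 488/em 540 nm). Compound added first (agonism vs Lys-Des-Arg9-bradykinin ≥50 nM human, Des-Arg9-bradykinin 10 μM rat), then after 10-20 min agonist at EC80; antagonism as % inhibition, IC50 from concentration series, n=2-3, N≥2.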

Structure (SMILES)	μ (binding on the μ opioid receptor, % inhibition) (human μ opiate receptor) [%]	5-HT (inhibition of reuptake of serotonin, % inhibition) [1] [%]	B1R Ant. h [10 μM] % Inhibition [2] [%]	inhibition at 1 µM (human μ opiate receptor) [%]	inhibition at 10 µM [1] [%]	inhibition at 10 µM [2] [%]
COc1cc(C)c(S(=O)(=O)N(C)CCOCC(=O)NC2CCC(C(c3ccc(F)cc3)N(C)C)CC2)c(C)c1C (stereo not drawn) [Example 380]	55	81	86	–	–	–
COc1cc(C)c(S(=O)(=O)N(CCOCC(=O)NC2CCC(C(c3ccccc3)N(C)C)CC2)Cc2ccccc2)c(C)c1 (stereo not drawn) [Example 483]	38	65	34	–	–	–
COc1cc(C)c(S(=O)(=O)N(C)CCOCC(=O)NCC2CCC(C(c3cccc(F)c3)N(C)C)CC2)c(C)c1C (stereo not drawn) [Example 160, N-((4-((dimethylamino)(3-fluorophenyl)methyl)cyclohexyl)methyl)-2-(2-(4-methoxy-N,2,3,6-tetramethylphenylsulfonamido)ethoxy)acetamide]	–	–	–	88	80	98
CN(C)C(c1ccccc1)C1CCC(NC(=O)COC2CCCN(S(=O)(=O)c3ccccc3)C2)CC1 (stereo not drawn) [Example 109, N-(4-((dimethylamino)(phenyl)methyl)cyclohexyl)-2-(1-(phenylsulfonyl)piperidin-3-yloxy)acetamide]	–	–	–	89	87	26
CN(C)C(c1ccccc1)C1CCC(NC(=O)COCCC2CCN(S(=O)(=O)c3ccccc3)CC2)CC1 (stereo not drawn) [Example 124, N-(4-((dimethylamino)(phenyl)methyl)cyclohexyl)-2-(2-(1-(phenylsulfonyl)piperidin-4-yl)ethoxy)acetamide]	–	–	–	87	89	9
